Tests used:
MCF7 = assay: Growth inhibition of human MCF7 cells at 10 uM after 48 hrs; assay type: functional; details: MCF7, 48 h, read-out: GI
Pseudomonas aeruginosa = assay: Antimicrobial activity against Pseudomonas aeruginosa assessed as inhibition zone at 200 ug/disk after 24 hrs by disc-diffusion method; assay type: functional; details: read-out: IZ
HL-60(TB) = assay: Growth inhibition of human HL-60(TB) cells at 10 uM after 48 hrs; assay type: functional; details: HL-60, 48 h, read-out: GI
[1] = Growth inhibition of human LOXIMVI cells at 10 uM after 48 hrs; assay type: functional; details: LOX IMVI, read-out: GI
[2] = Growth inhibition of human NCI-ADR-RES cells at 10 uM after 48 hrs; assay type: functional; details: read-out: GI
[3] = Growth inhibition of human HOP92 cells at 10 uM after 48 hrs; assay type: functional; details: HOP-92, 48 h, read-out: GI
[4] = Growth inhibition of human SF539 cells at 10 uM after 48 hrs; assay type: functional; details: SF-539, 48 h, read-out: GI
SK-MEL-5 = assay: Growth inhibition of human SK-MEL-5 cells at 10 uM after 48 hrs; assay type: functional; details: SK-MEL-5, 48 h, read-out: GI
[5] = Growth inhibition of human Hs 578T cells at 10 uM after 48 hrs; assay type: functional; details: read-out: GI
SN12C = assay: Growth inhibition of human SN12C cells at 10 uM after 48 hrs; assay type: functional; details: read-out: GI
T47D = assay: Growth inhibition of human T47D cells at 10 uM after 48 hrs; assay type: functional; details: read-out: GI
K562 = assay: Growth inhibition of human K562 cells at 10 uM after 48 hrs; assay type: functional; details: K562, 48 h, read-out: GI
CCRF-CEM = assay: Growth inhibition of human CCRF-CEM cells at 10 uM after 48 hrs; assay type: functional; details: read-out: GI
NCI-H226 = assay: Growth inhibition of human NCI-H226 cells at 10 uM after 48 hrs; assay type: functional; details: NCI-H226, 48 h, read-out: GI
A498 = assay: Growth inhibition of human A498 cells at 10 uM after 48 hrs; assay type: functional; details: A498, 48 h, read-out: GI
SNB-75 = assay: Growth inhibition of human SNB75 cells at 10 uM after 48 hrs; assay type: functional; details: SNB-75, 48 h, read-out: GI
U-251 = assay: Growth inhibition of human U251 cells at 10 uM after 48 hrs; assay type: functional; details: U-251, 48 h, read-out: GI
NCI-H522 = assay: Growth inhibition of human NCI-H522 cells at 10 uM after 48 hrs; assay type: functional; details: NCI-H522, 48 h, read-out: GI
Candida albicans = assay: Antimicrobial activity against Candida albicans assessed as inhibition zone at 200 ug/disk after 24 hrs by disc-diffusion method; assay type: functional; details: read-out: IZ
[6] = Growth inhibition of human HCC2998 cells at 10 uM after 48 hrs; assay type: functional; details: HCC 2998, 48 h, read-out: GI
[7] = Growth inhibition of human RPMI8226 cells at 10 uM after 48 hrs; assay type: functional; details: RPMI-8226, 48 h, read-out: GI
[8] = Growth inhibition of human OVCAR8 cells at 10 uM after 48 hrs; assay type: functional; details: OVCAR-8, 48 h, read-out: GI
[9] = Growth inhibition of human COLO205 cells at 10 uM after 48 hrs; assay type: functional; details: COLO 205, 48 h, read-out: GI
[10] = Growth inhibition of human UACC257 cells at 10 uM after 48 hrs; assay type: functional; details: UACC-257, 48 h, read-out: GI
786-0 = assay: Growth inhibition of human 786-0 cells at 10 uM after 48 hrs; assay type: functional; details: 786-0, 48 h, read-out: GI
[11] = Growth inhibition of human HCT15 cells at 10 uM after 48 hrs; assay type: functional; details: HCT-15, 48 h, read-out: GI
[12] = Growth inhibition of human RXF393 cells at 10 uM after 48 hrs; assay type: functional; details: RXF 393, 48 h, read-out: GI
[13] = Growth inhibition of human UO31 cells at 10 uM after 48 hrs; assay type: functional; details: UO-31, 48 h, read-out: GI
[14] = Growth inhibition of human BT549 cells at 10 uM after 48 hrs; assay type: functional; details: BT-549, 48 h, read-out: GI
ACHN = assay: Growth inhibition of human ACHN cells at 10 uM after 48 hrs; assay type: functional; details: read-out: GI
Bacillus subtilis = assay: Antimicrobial activity against Bacillus subtilis assessed as inhibition zone at 200 ug/disk after 24 hrs by disc-diffusion method; assay type: functional; details: read-out: IZ
Dihydrofolate reductase = target: T1, Dihydrofolate reductase (Bos taurus, UniProt P00376); assay: Inhibition of bovine liver DHFR
T1 sequence (P00376 whole entry): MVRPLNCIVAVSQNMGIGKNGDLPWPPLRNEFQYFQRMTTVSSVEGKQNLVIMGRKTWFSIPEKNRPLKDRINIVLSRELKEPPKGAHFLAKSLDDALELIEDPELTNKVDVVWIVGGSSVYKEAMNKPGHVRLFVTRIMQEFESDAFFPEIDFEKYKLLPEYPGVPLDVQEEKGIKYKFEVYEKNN

[15] = Growth inhibition of human PC3 cells at 10 uM after 48 hrs; assay type: functional; details: PC-3, 48 h, read-out: GI
M14 = assay: Growth inhibition of human M14 cells at 10 uM after 48 hrs; assay type: functional; details: M14, 48 h, read-out: GI
[16] = Growth inhibition of human MOLT4 cells at 10 uM after 48 hrs; assay type: functional; details: MOLT-4, 48 h, read-out: GI
HT-29 = assay: Growth inhibition of human HT-29 cells at 10 uM after 48 hrs; assay type: functional; details: HT-29, 48 h, read-out: GI
[17] = Growth inhibition of human OVCAR4 cells at 10 uM after 48 hrs; assay type: functional; details: OVCAR-4, 48 h, read-out: GI
[18] = Growth inhibition of human SF295 cells at 10 uM after 48 hrs; assay type: functional; details: SF-295, 48 h, read-out: GI
SW-620 = assay: Growth inhibition of human SW620 cells at 10 uM after 48 hrs; assay type: functional; details: SW-620, 48 h, read-out: GI
Escherichia coli = assay: Antimicrobial activity against Escherichia coli assessed as inhibition zone at 200 ug/disk after 24 hrs by disc-diffusion method; assay type: functional; details: read-out: IZ
Staphylococcus aureus = assay: Antimicrobial activity against Staphylococcus aureus assessed as inhibition zone at 200 ug/disk after 24 hrs by disc-diffusion method; assay type: functional; details: read-out: IZ
[19] = Growth inhibition of human HCT116 cells at 10 uM after 48 hrs; assay type: functional; details: HCT-116, 48 h, read-out: GI
MDA-MB-468 = assay: Growth inhibition of human MDA-MB-468 cells at 10 uM after 48 hrs; assay type: functional; details: MDA-MB-468, 48 h, read-out: GI
A549 = assay: Growth inhibition of human A549 cells at 10 uM after 48 hrs; assay type: functional; details: A549, 48 h, read-out: GI
[20] = Growth inhibition of human UACC62 cells at 10 uM after 48 hrs; assay type: functional; details: UACC-62, 48 h, read-out: GI

## COc1cc2nc(Sc3sc(N)nc3C)n(-c3ccc(Oc4ccccc4)cc3)c(=O)c2cc1OC
MCF7
  inhibition of growth at 10 µM: 25.7%
Pseudomonas aeruginosa
  zone of inhibition at 200 µg/disc: 8 mm
HL-60(TB)
  inhibition of growth at 10 µM: 21.2%
[1]
  inhibition of growth at 10 µM: 21.7%
[2]
  inhibition of growth at 10 µM: 24.8%
[3]
  inhibition of growth at 10 µM: 20.5%
[4]
  inhibition of growth at 10 µM: 18.7%
SK-MEL-5
  inhibition of growth at 10 µM: 23.2%
[5]
  inhibition of growth at 10 µM: 11.6%
SN12C
  inhibition of growth at 10 µM: 20.3%
T47D
  inhibition of growth at 10 µM: 22.7%
K562
  inhibition of growth at 10 µM: 21.5%
CCRF-CEM
  inhibition of growth at 10 µM: 35.5%
NCI-H226
  inhibition of growth at 10 µM: 10.3%
A498
  inhibition of growth at 10 µM: 18%
SNB-75
  inhibition of growth at 10 µM: 13.3%
U-251
  inhibition of growth at 10 µM: 12.4%
NCI-H522
  inhibition of growth at 10 µM: 16.3%
Candida albicans
  zone of inhibition at 200 µg/disc: 8 mm
[6]
  inhibition of growth at 10 µM: 19.6%
[7]
  inhibition of growth at 10 µM: 32.4%
[8]
  inhibition of growth at 10 µM: 15%
[9]
  inhibition of growth at 10 µM: 24.1%
[10]
  inhibition of growth at 10 µM: 10.3%
786-0
  inhibition of growth at 10 µM: 20%
[11]
  inhibition of growth at 10 µM: 20.1%
[12]
  inhibition of growth at 10 µM: 14.1%
[13]
  inhibition of growth at 10 µM: 23.9%
[14]
  inhibition of growth at 10 µM: 28.7%
ACHN
  inhibition of growth at 10 µM: 18.5%
Bacillus subtilis
  zone of inhibition at 200 µg/disc: 8 mm
Dihydrofolate reductase
  IC50: 6 µM
[15]
  inhibition of growth at 10 µM: 34.9%
M14
  inhibition of growth at 10 µM: 18.5%
[16]
  inhibition of growth at 10 µM: 46.1%
HT-29
  inhibition of growth at 10 µM: 25%
[17]
  inhibition of growth at 10 µM: 49.3%
[18]
  inhibition of growth at 10 µM: 14.6%
SW-620
  inhibition of growth at 10 µM: 18.8%
Escherichia coli
  zone of inhibition at 200 µg/disc: 8 mm
Staphylococcus aureus
  zone of inhibition at 200 µg/disc: 8 mm
[19]
  inhibition of growth at 10 µM: 52.7%
MDA-MB-468
  inhibition of growth at 10 µM: 19.9%
A549
  inhibition of growth at 10 µM: 16.7%
[20]
  inhibition of growth at 10 µM: 18.6%
